Experimental data as given in patent US6593303B1, “Anti-tumor synergetic composition” (Pharmacia & Upjohn, S.p.A., priority 1999, dated 2003).

Experiments:
[1] = tested on: A549 human lung carcinoma; assay: Antitumor activity on s.c. implanted A549 human lung carcinoma
MX1 mammary carcinoma = assay: Antitumor activity on s.c. injected MX1 mammary carcinoma; format: in vivo, mice
[2] = tested on: H207 human ovarian carcinoma; assay: Antitumor activity on s.c. implanted H207 human ovarian carcinoma
[3] = tested on: disseminated L1210 murine leukemia; assay: Antileukemic activity against disseminated L1210 murine leukemia (cells injected iv)
[4] = Table 2, CisPlatin alone 3 mg/kg/day iv q4dx2
[5] = Ia alone 0.5 mg/kg/day iv 8,12,16
[6] = Ia alone 1 mg/kg/day iv 8,12,16
[7] = Table 2, Ia alone 1.5 mg/kg/day iv q4dx3
[8] = Table 3, Ia alone 2 mg/kg/day iv +7,11,15
[9] = Ia alone 1.5 mg/kg/day iv q4dx3
[10] = Ia alone 1 mg/kg/day iv day +1,2
[11] = Table 3, Paclitaxel alone 22 mg/kg/day iv +9,13,17
[12] = Table 3, Paclitaxel alone 33 mg/kg/day iv +9,13,17
[13] = Paclitaxel alone 22 mg/kg/day iv q4dx3
[14] = Paclitaxel alone 33 mg/kg/day iv q4dx3
[15] = Taxotere alone 5 mg/kg/day iv 10,14,18
[16] = Taxotere alone 10 mg/kg/day iv 10,14,18

N.N.[Cl][Pt][Cl] [CisPlatin]
N° of Tumor-Free Survivors [1, 4]: 0/9
T-C N° of days (tumor growth delay, 1 g) [1, 4]: 0 days
T.I. % (tumor inhibition) [1, 4]: 16%
Body weight Reduction % (day) ([1]; Table 2, CisPlatin alone 3 mg/kg/day iv q4dx2, day 18): 2(18) %

CC(=O)[C@]1(O)Cc2c(O)c3c(c(O)c2[C@@H](OC2CC(N4CC4)C(OS(C)(=O)=O)C(C)O2)C1)C(=O)c1ccccc1C3=O (some centres unmarked) [Ia, 4-demethoxy-3′-deamino-3′-aziridinyl-4′-methansulfonyl daunorubicin]
Body weight Reduction % (day) (MX1 mammary carcinoma; [5]): 0%
N° of Tumor-Free Survivors (MX1 mammary carcinoma; [5]): 0/8
T.I. % (tumor inhibition) (MX1 mammary carcinoma; [5]): 46%
TGD (lg) days (tumor growth delay treated - control) (MX1 mammary carcinoma; [5]): 1 days
Tox (number of toxic deaths/number of mice) (MX1 mammary carcinoma; [5]): 0/8
N° of Tumor-Free Survivors (MX1 mammary carcinoma; [6]): 1/7
T.I. % (tumor inhibition) (MX1 mammary carcinoma; [6]): 94%
TGD (lg) days (tumor growth delay treated - control) (MX1 mammary carcinoma; [6]): 2 days
Tox (number of toxic deaths/number of mice) (MX1 mammary carcinoma; [6]): 0/7
Body weight Reduction % (day) (MX1 mammary carcinoma; Ia alone 1 mg/kg/day iv 8,12,16, day 17): 5%
N° of Tumor-Free Survivors [1, 7]: 0/9
T-C N° of days (tumor growth delay, 1 g) [1, 7]: 5 days
T.I. % (tumor inhibition) [1, 7]: 48%
Tox (number of toxic deaths/number of mice) [1, 7]: 0/9
Body weight Reduction % (day) ([1]; Table 2, Ia alone 1.5 mg/kg/day iv q4dx3, day 14): 9(14) %
N° of Tumor-Free Survivors [1, 8]: 0/8
T-C N° of days (tumor growth delay, 1 g) [1, 8]: 9 days
T.I. % (tumor inhibition) [1, 8]: 69%
Tox (number of toxic deaths/number of mice) [1, 8]: 0/8
Body weight Reduction % (day) ([1]; Table 3, Ia alone 2 mg/kg/day iv +7,11,15, day 13): 11%
N° of Tumor-Free Survivors [2, 9]: 0/7
T-C N° of days (tumor growth delay, 1 g) [2, 9]: 47 days
T.I. % (tumor inhibition) [2, 9]: 100%
Tox (number of toxic deaths/number of mice) [2, 9]: 0/7
Body weight Reduction % (day) ([2]; Ia alone 1.5 mg/kg/day iv q4dx3, day 15): 7%
ILS % (increase in life span) [3, 10]: 83%
Tox (number of toxic deaths/number of mice) [3, 10]: 0/10

O=C1[O][Pt]2([NH][C@@H]3CCCC[C@H]3[NH]2)[O]C1=O [Oxaliplatinum, Oxaliplatin]
ILS % (increase in life span) ([3]; Oxaliplatinum alone 8 mg/kg/day ip day +3): 83%

CC(=O)O[C@H]1C(=O)[C@@]2(C)[C@H]([C@H](OC(=O)c3ccccc3)[C@]3(O)C[C@H](OC(=O)[C@H](O)[C@@H](NC(=O)c4ccccc4)c4ccccc4)C(C)=C1C3(C)C)[C@]1(OC(C)=O)CO[C@@H]1C[C@@H]2O [Paclitaxel]
Body weight Reduction % (day) [1, 11]: 0%
N° of Tumor-Free Survivors [1, 11]: 0/8
T-C N° of days (tumor growth delay, 1 g) [1, 11]: 27 days
T.I. % (tumor inhibition) [1, 11]: 90%
Tox (number of toxic deaths/number of mice) [1, 11]: 0/8
Body weight Reduction % (day) [1, 12]: 0%
N° of Tumor-Free Survivors [1, 12]: 0/8
T-C N° of days (tumor growth delay, 1 g) [1, 12]: 29 days
T.I. % (tumor inhibition) [1, 12]: 93%
Tox (number of toxic deaths/number of mice) [1, 12]: 0/8
Body weight Reduction % (day) [2, 13]: 0%
N° of Tumor-Free Survivors [2, 13]: 0/7
T-C N° of days (tumor growth delay, 1 g) [2, 13]: 9 days
T.I. % (tumor inhibition) [2, 13]: 80%
Tox (number of toxic deaths/number of mice) [2, 13]: 0/7
N° of Tumor-Free Survivors [2, 14]: 0/7
T-C N° of days (tumor growth delay, 1 g) [2, 14]: 12 days
T.I. % (tumor inhibition) [2, 14]: 86%
Tox (number of toxic deaths/number of mice) [2, 14]: 0/7
Body weight Reduction % (day) ([2]; Paclitaxel alone 33 mg/kg/day iv q4dx3, day 13): 3%

CC(=O)O[C@@]12CO[C@@H]1C[C@H](O)[C@@]1(C)C(=O)[C@H](O)C3=C(C)[C@@H](OC(=O)[C@H](O)[C@@H](NC(=O)OC(C)(C)C)c4ccccc4)C[C@@](O)([C@@H](OC(=O)c4ccccc4)[C@H]21)C3(C)C [Taxotere, Docetaxel]
Body weight Reduction % (day) (MX1 mammary carcinoma; [15]): 0%
N° of Tumor-Free Survivors (MX1 mammary carcinoma; [15]): 0/8
T.I. % (tumor inhibition) (MX1 mammary carcinoma; [15]): 60%
TGD (lg) days (tumor growth delay treated - control) (MX1 mammary carcinoma; [15]): 1 days
Tox (number of toxic deaths/number of mice) (MX1 mammary carcinoma; [15]): 0/8
N° of Tumor-Free Survivors (MX1 mammary carcinoma; [16]): 2/8
T.I. % (tumor inhibition) (MX1 mammary carcinoma; [16]): 99%
TGD (lg) days (tumor growth delay treated - control) (MX1 mammary carcinoma; [16]): 42 days
Tox (number of toxic deaths/number of mice) (MX1 mammary carcinoma; [16]): 0/8
Body weight Reduction % (day) (MX1 mammary carcinoma; Taxotere alone 10 mg/kg/day iv 10,14,18, day 25): 8%
